This is an account of results in publication PMC7249047, “Search for ABCB1 Modulators Among 2-Amine-5-Arylideneimidazolones as a New Perspective to Overcome Cancer Multidrug Resistance” (Molecules, 2020).

By melting point is commonly meant the temperature of the solid-liquid transition. A word on the IC50: it is the concentration needed to halve the response being measured.

The test system of data set [1] is multidrug-resistant (MDR) mouse T-lymphoma cells. Description: Antiproliferative MTT assay, 72 h, MDR cells. In kind it is cell-based. The following applies: for SI (selectivity index), antiproliferative: MDR with respect to PAR cells; for IC50: Mus musculus, MDR cells, 72 h, MTT, read-out: Antiproliferative effect IC50. As for the experimental part:
(§1) The ABCB1-expressing cell line L5178Y (MDR) was selected by culturing the infected cells with colchicine. The parental L5178 mouse T-cell lymphoma cells and the L5178Y human ABCB1-transfected subline were cultured in McCoy’s 5A medium (Sigma-Aldrich, St Louis, MO, USA) supplemented with 10% heat-inactivated horse serum (Sigma-Aldrich, St Louis, MO, USA), 200 mM L-glutamine (Sigma-Aldrich, St Louis, MO, USA), and a penicillin-streptomycin (Sigma-Aldrich, St Louis, MO, USA) mixture in concentrations of 100 U/L and 10 mg/L, respectively.
(§2) Cytotoxicity and antiproliferative assays were performed following the procedure described in the literature. Parental and multidrug-resistant mouse T-lymphoma cells were used to determine the effect of the arylideneimidazolones on the growth of cells. The effects of increasing concentrations of arylideneimidazolones on cell growth were tested in 96-well flat-bottomed microtiter plates. The compounds were diluted in a volume of 100 μL of medium.
(§3) In the case of the mouse T-lymphoma cells, the two-fold serial dilutions were prepared in 100 μL of McCoy’s 5A, horizontally. The parental (PAR) and multidrug-resistant (MDR) mouse T-lymphoma cells were adjusted to a density of 1 × 10^4 cells (for cytotoxic assay) and 6 × 10^3 (for antiproliferative assay) in 100 μL of McCoy’s 5A medium and were added to each well, with the exception of the medium control wells.
(§4) Cell growth was determined by measuring the optical density (OD) at 540/630 nm with a Multiscan EX ELISA reader (Thermo Labsystems, Cheshire, WA, USA).

In data set [2] the test system is parental (PAR) mouse T-lymphoma cells. Description: Antiproliferative MTT assay, 72 h, PAR cells. In kind it is cell-based. The conditions noted are these: read-out: Antiproliferative effect IC50. As for the experimental part: as §1, §2, §3, §4
On the technique in general: Formazan colour is commonly taken as a measure of viable cells.

Data set [3] can be described thus: Cytotoxicity MTT assay, 24 h, MDR cells. In kind it is cell-based. The conditions noted are these: mouse; for IC50 at 24 h: MDR cells, MTT, read-out: Cytotoxic effect IC50; for selectivity ratio at 24 h: cytotoxic action on MDR with respect to PAR cells, read-out: SI (selectivity index), cytotoxicity. How it is done:
(§5) The cytotoxicity of compounds 7–20 was examined in both aforementioned PAR and MDR mouse T-lymphoma cell lines, using the MTT assay to estimate IC50 values. The selectivity index for cytotoxic action on MDR with respect to PAR cells was calculated (SI, Table 3). […] This range of SI may indicate ABCB1-efflux pump substrate properties for the whole series (7–20), especially distinct in the case of 19 (SI ≤ 0.29), and slightly weaker for 8, 12, 16, and 18.
as §1, with “L5178 mouse T-cell lymphoma cells (PAR) (ECACC Cat. No. 87111908, obtained from FDA, Silver Spring, MD, USA) were transfected with pHa MDR1/A retrovirus, as previously described by Cornwell et al.. The ABCB1-expressing” for “The ABCB1-expressing”, “mg/L, respectively. The cell lines were incubated at 37 °C, in a 5% CO2, 95% air atmosphere.” for “mg/L, respectively.”
as §2, §3
(§6) The culture plates were incubated at 37 °C for 24 h (for cytotoxicity assay) and 72 h (for antiproliferative assay); at the end of the incubation period, 20 μL of MTT (thiazolyl blue tetrazolium bromide, Sigma) solution (from a stock solution of 5 mg/mL) were added to each well. After incubation at 37 °C for 4 h, 100 μL of sodium dodecyl sulfate (SDS) (Sigma) solution (10% in 0.01 M HCI) were added to each well and the plates were further incubated at 37 °C overnight. Cell growth was determined by measuring the optical density (OD) at 540/630 nm with a Multiscan EX ELISA reader (Thermo Labsystems, Cheshire, WA, USA).
(§7) Results have been expressed in terms of IC50, defined as the inhibitory dose that reduces the growth of the cells exposed to the tested compounds by 50%, each representing the mean of a minimum of three independent experiments.

Data set [4] is described as follows: Cytotoxicity MTT assay, 24 h, PAR cells. The conditions noted are these: mouse, parental (PAR) L5178 mouse T-cell lymphoma cells, read-out: Cytotoxic effect IC50. It counts as cell-based. As for the experimental part:
as §5
as §1, with “L5178 mouse T-cell lymphoma cells (PAR) (ECACC Cat. No. 87111908, obtained from FDA, Silver Spring, MD, USA) were transfected with pHa MDR1/A retrovirus, as previously described by Cornwell et al.. The ABCB1-expressing” for “The ABCB1-expressing”, “mg/L, respectively. The cell lines were incubated at 37 °C, in a 5% CO2, 95% air atmosphere.” for “mg/L, respectively.”
as §2, §3, §6, §7

Data set [5] deals with ABCB1 efflux pump (Homo sapiens, UniProt P08183). Description: Rhodamine 123 accumulation assay (flow cytometry). The following applies: for FAR Quotient (%): FAR of compound related to FAR of VER tested at 20 µM; for FAR (fluorescence activity ratio): rhodamine 123 accumulation, MDR vs PAR mouse T-lymphoma cells. For orientation: In flow cytometry, cells or beads pass a laser one at a time.
Method: The study was carried out on mouse T-lymphoma cell lines, including the parental sensitive line (PAR) and its multidrug-resistant subline (MDR) transfected with the human MDR1 (ABCB1) gene. […] The fluorescence activity ratio (FAR), as a measure of the efflux pump modulating properties, was calculated based on the fluorescence data obtained [23, 24, 25]. […] The parental L5178 mouse T-cell lymphoma cells and the L5178Y human ABCB1-transfected subline were cultured in McCoy’s 5A medium (Sigma-Aldrich, St Louis, MO, USA) supplemented with 10% heat-inactivated horse serum (Sigma-Aldrich, St Louis, MO, USA), 200 mM L-glutamine (Sigma-Aldrich, St Louis, MO, USA), and a penicillin-streptomycin (Sigma-Aldrich, St Louis, MO, USA) mixture in concentrations of 100 U/L and 10 mg/L, respectively.
The potency of the tested compounds as inhibitors of the ABCB1 efflux pump was determined using a fluorescence-based detection system, described previously in the literature [23, 26]. […] The parental (PAR) and multidrug-resistant (MDR) mouse T-lymphoma cells were adjusted to a density of 2 × 10^6/mL, re-suspended in serum-free McCoy’s 5A medium, and distributed in 0.5 mL aliquots into Eppendorf centrifuge tubes. […] The fluorescence intensity of the cell population was measured with a Partec CyFlow flow cytometer (Partec, Munster, Germany). […] The mean fluorescence intensity (%) was calculated for the treated MDR and PAR mouse T-lymphoma cells as compared to the untreated cells.

The mark [6] stands for this setting: concentration 20 µM, VER values for assay group 1 / 2.

Counter-ions that a name gives are not always drawn.

Sequence of ABCB1 efflux pump (P08183 whole entry): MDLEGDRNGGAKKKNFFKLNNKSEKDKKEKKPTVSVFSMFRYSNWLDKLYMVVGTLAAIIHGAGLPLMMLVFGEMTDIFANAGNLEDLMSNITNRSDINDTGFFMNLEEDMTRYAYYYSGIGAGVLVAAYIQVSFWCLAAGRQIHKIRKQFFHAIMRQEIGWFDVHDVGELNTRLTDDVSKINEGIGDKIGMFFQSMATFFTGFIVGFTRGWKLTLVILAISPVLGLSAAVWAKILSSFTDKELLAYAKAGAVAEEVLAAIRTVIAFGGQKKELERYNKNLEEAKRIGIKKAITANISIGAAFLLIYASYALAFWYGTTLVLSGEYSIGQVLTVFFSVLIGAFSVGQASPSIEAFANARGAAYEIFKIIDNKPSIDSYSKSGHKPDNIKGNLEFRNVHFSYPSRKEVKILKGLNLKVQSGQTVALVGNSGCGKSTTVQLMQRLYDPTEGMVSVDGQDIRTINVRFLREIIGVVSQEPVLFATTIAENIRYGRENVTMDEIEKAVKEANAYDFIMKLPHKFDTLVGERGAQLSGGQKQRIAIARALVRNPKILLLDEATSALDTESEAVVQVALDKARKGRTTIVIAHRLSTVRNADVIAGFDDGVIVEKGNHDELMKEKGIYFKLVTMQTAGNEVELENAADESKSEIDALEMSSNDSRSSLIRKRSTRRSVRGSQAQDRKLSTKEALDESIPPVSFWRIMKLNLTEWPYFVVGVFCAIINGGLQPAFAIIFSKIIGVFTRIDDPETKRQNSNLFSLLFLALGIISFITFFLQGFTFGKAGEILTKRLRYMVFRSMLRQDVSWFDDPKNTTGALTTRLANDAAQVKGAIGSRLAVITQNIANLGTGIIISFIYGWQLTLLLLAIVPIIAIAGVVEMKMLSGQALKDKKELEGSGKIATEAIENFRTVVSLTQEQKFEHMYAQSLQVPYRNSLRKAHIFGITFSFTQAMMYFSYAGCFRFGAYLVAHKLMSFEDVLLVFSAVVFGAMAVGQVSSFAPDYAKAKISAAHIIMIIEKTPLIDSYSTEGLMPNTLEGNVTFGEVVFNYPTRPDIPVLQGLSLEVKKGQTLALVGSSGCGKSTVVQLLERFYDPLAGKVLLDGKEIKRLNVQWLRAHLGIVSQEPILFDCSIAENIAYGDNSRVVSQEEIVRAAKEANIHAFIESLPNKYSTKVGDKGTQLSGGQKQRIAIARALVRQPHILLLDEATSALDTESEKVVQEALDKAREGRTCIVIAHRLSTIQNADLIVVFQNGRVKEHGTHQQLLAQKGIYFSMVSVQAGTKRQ

On to `NC1=N/C(=C\c2ccc(-c3ccccc3)cc2)C(=O)N1CCN1CCOCC1` (as salt: hydrochloride) [Compound 14], for which the melting point lay within 266 to 270 °C.
Consider `Cl.O=C1NC(N2CCOCC2)=N/C1=C\c1ccc(-c2ccccc2)cc1` [Compound 7, (Z)-5-(Biphen-4-ylmethylene)-2-morpholino-3H-imidazol-4(5H)-one hydrochloride], for which the melting point was 248 to 252 °C. Further, in data set [1], the “SI (selectivity index), antiproliferative” value (from here on “SI (selectivity index)”) worked out at 0.67 and the IC50 stood at 26.3 µM. In data set [2], the IC50 came to 17.6 µM. In addition, in data set [3], the IC50 at 24 h stood at 54.2 µM and the selectivity ratio at 24 h worked out at 0.99. For the same compound, the IC50 at 24 h in data set [4] amounted to 53.5 µM. For the same compound, in data set [5] (concentration 2 µM), the “FAR Quotient (%)” value is listed as 7.31% and the “FAR (fluorescence activity ratio)” value is 0.955. Further, the “FAR Quotient (%)” value in data set [5] (concentration 20 µM) amounted to 7.09%. In addition, the “FAR (fluorescence activity ratio)” value in data set [5] (setting [6]) turned out to be 0.927.
Compound `Cl.O=C1N=C(N2CCC(N3CCOCC3)CC2)N/C1=C\c1ccc(-c2ccccc2)cc1` [Compound 8, (Z)-5-(Biphen-4-ylmethylene)-2-(4-morpholinopiperidin-1-yl)-imidazol-4(5H)-one hydrochloride] came in with a melting point of 267 to 269 °C. In data set [1], the “SI (selectivity index)” value amounted to 0.57 and the IC50 turned out to be 26 µM. Besides, the IC50 in data set [2] came out at 14.8 µM. Besides, in data set [3], the IC50 at 24 h was determined as 46.4 µM and the selectivity ratio at 24 h worked out at 0.52. The half-maximal inhibitory concentration (IC50) at 24 h in data set [4] was determined as 24 µM. Also, in data set [5] (concentration 2 µM), the “FAR Quotient (%)” value is on record as 8.49% and the “FAR (fluorescence activity ratio)” value is 1.359. In data set [5] (concentration 20 µM), the “FAR Quotient (%)” value was determined as 15.04%. For the same compound, in data set [5] (setting [6]), the “FAR (fluorescence activity ratio)” value was found to be 2.409.
In turn, `Cl.O=C1N=C(N2CCN(CCN3CCOCC3)CC2)N/C1=C\c1ccc(-c2ccccc2)cc1` [Compound 9, (Z)-5-(Biphen-4-ylmethylene)-2-(4-(2-morpholinoethyl)piperazin-1-yl)-imidazol-4(5H)-one hydrochloride] registered a melting point of 305 to 307 °C. Moreover, in data set [1], the “SI (selectivity index)” value was found to be 0.47 and the 50% inhibitory concentration (IC50) turned out to be 16.5 µM. The IC50 in data set [2] was determined as 7.78 µM. Also, in data set [3], the IC50 at 24 h came out at 18.1 µM and the selectivity ratio at 24 h is 0.71. Further, in data set [4], the IC50 at 24 h was found to be 12.8 µM. In data set [5] (concentration 2 µM), the “FAR Quotient (%)” value was found to be 5.86% and the “FAR (fluorescence activity ratio)” value is on record as 0.766. The “FAR Quotient (%)” value in data set [5] (concentration 20 µM) is 12.58%. Besides, the “FAR (fluorescence activity ratio)” value in data set [5] (setting [6]) worked out at 1.645.
Consider `Cl.O=C1N=C(N2CCC(N3CCOCC3)CC2)N/C1=C\c1cccc(Oc2ccccc2)c1` [Compound 10, (Z)-5-(3-Phenoxybenzylidene)-2-(4-morpholinopiperidin-1-yl)-imidazol-4(5H)-one hydrochloride], for which the melting point was 289 to 292 °C. In data set [1], the “SI (selectivity index)” value was 1.18 and the IC50 is 22.4 µM. In addition, the IC50 in data set [2] turned out to be 26.4 µM. Further, in data set [3], the IC50 at 24 h stood at 63.8 µM and the selectivity ratio at 24 h was 0.85. In addition, the IC50 at 24 h in data set [4] was 54 µM. In addition, in data set [5] (concentration 2 µM), the “FAR Quotient (%)” value turned out to be 6.92% and the “FAR (fluorescence activity ratio)” value was found to be 1.108. In data set [5] (concentration 20 µM), the “FAR Quotient (%)” value stood at 12.44%. Further, in data set [5] (setting [6]), the “FAR (fluorescence activity ratio)” value worked out at 1.992.
With `Cl.O=C1N=C(N2CCC(N3CCOCC3)CC2)N/C1=C\c1c2ccccc2cc2ccccc12` [Compound 13, (Z)-5-(Anthracen-10-ylmethylene)-2-(4-morpholinopiperidin-1-yl)-imidazol-4(5H)-one hydrochloride], the melting point lay within 303 to 305 °C. In data set [1], the “SI (selectivity index)” value is given as 0.36 and the IC50 stood at 48.6 µM. Moreover, in data set [2], the IC50 was 17.4 µM. In data set [3], the half-maximal inhibitory concentration (IC50) at 24 h is > 100 µM and the selectivity ratio at 24 h was ≤ 0.82. In data set [4], the IC50 at 24 h worked out at 82.2 µM. Besides, in data set [5] (concentration 2 µM), the “FAR Quotient (%)” value was determined as 6.04% and the “FAR (fluorescence activity ratio)” value is reported as 0.968. Also, the “FAR Quotient (%)” value in data set [5] (concentration 20 µM) is reported as 12.94%. Moreover, in data set [5] (setting [6]), the “FAR (fluorescence activity ratio)” value turned out to be 2.073.
As for `NC1=N/C(=C\c2ccc(-c3ccccc3)cc2)C(=O)N1CCN1CCOCC1` [Compound 14], the “SI (selectivity index)” value in data set [1] was 0.89. For the same compound, the IC50 in data set [1] was determined as 27.9 µM; in data set [2] it was 24.9 µM. Further, the IC50 at 24 h amounted to 57.4 µM in data set [3] and 36.9 µM in data set [4]. Moreover, the selectivity ratio at 24 h in data set [3] turned out to be 0.64. The figures for the “FAR Quotient (%)” value in data set [5] (concentration 2 µM) and in data set [5] (concentration 20 µM) were 6.22% and 6.48%, respectively. Further, the “FAR (fluorescence activity ratio)” value is reported as 0.814 in data set [5] (concentration 2 µM) and 0.847 in data set [5] (setting [6]).
As for `NC1=N/C(=C\c2cccc(Oc3ccccc3)c2)C(=O)N1CCCN1CCOCC1` [Compound 16], the “SI (selectivity index)” value in data set [1] was found to be 0.94. The IC50 in data set [1] is 12.2 µM; in data set [2], 11.4 µM. The half-inhibitory concentration (IC50) at 24 h in data set [3] came to 31.3 µM; in data set [4] it was 16 µM. Besides, the selectivity ratio at 24 h in data set [3] was 0.51. Also, the “FAR Quotient (%)” value came to 7.09% in data set [5] (concentration 2 µM) and 18.55% in data set [5] (concentration 20 µM). Moreover, the “FAR (fluorescence activity ratio)” value in data set [5] (concentration 2 µM) stood at 0.927; in data set [5] (setting [6]), 2.426.
Turning to `NC1=N/C(=C\c2c3ccccc3cc3ccccc23)C(=O)N1CCCN1CCOCC1` [Compound 19], the “SI (selectivity index)” value in data set [1] is on record as 0.33. The figures for the IC50 in data set [1] and in data set [2] were 43.8 µM and 14.4 µM, respectively. The IC50 at 24 h in data set [3] is > 100 µM; in data set [4], 28.6 µM. Also, in data set [3], the selectivity ratio at 24 h was ≤ 0.29. Besides, the “FAR Quotient (%)” value was 7.94% in data set [5] (concentration 2 µM) and 10.08% in data set [5] (concentration 20 µM). The “FAR (fluorescence activity ratio)” value worked out at 1.272 in data set [5] (concentration 2 µM) and 1.615 in data set [5] (setting [6]).
With `COc1cccc2c1C(=O)c1c(O)c3c(c(O)c1C2=O)C[C@@](O)(C(=O)CO)C[C@@H]3O[C@H]1C[C@H](N)[C@H](O)[C@H](C)O1` [DOX, doxorubicin, reference compound], the “SI (selectivity index)” value in data set [1] was 0.16. Further, the IC50 in data set [1] turned out to be 1.75 µM; in data set [2], 0.28 µM. For the same compound, the IC50 at 24 h was 2.14 µM in data set [3] and 0.7 µM in data set [4]. The selectivity ratio at 24 h in data set [3] amounted to 0.33.
